Entries after “also recorded” stand apart in the source; their conditions may differ.
Legend:
[1] = molecular target: plasmin (Homo sapiens, UniProt P00747); assay: Fibrin clot degradation by plasmin (gravimetric, protease inhibition); assay type: biochemical; conditions: for protease inhibition activity (inhibiting plasmin mediated degradation of fibrin clots): 0-1 mM in fibrin clots, plasmin in PBS buffer; for protease inhibition activity (inhibiting plasmin mediated degradation of fibrin clots) / resistance against fibrin clot degradation by plasmin: up to 48 hours; for resistance against fibrin clot degradation by plasmin: about 0.1 mM, triplicate; for plasmin-mediated degradation of fibrin clots at 3% loading: about 3% loading in fibrin clots; for protease inhibition activity compared with TA (conclusion): fibrin clot / plasmin system; for degradation of the clot: about 16 hours
Sequence of plasmin (P00747 581-810): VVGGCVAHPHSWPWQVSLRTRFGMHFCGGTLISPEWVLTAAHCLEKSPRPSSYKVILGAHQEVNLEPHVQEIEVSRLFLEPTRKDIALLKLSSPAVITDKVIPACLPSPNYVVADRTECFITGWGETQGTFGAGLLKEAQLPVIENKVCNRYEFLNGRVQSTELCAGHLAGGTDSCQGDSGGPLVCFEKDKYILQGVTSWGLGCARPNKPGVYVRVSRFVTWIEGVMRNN
Sequence of plasmin (P00747 97-580): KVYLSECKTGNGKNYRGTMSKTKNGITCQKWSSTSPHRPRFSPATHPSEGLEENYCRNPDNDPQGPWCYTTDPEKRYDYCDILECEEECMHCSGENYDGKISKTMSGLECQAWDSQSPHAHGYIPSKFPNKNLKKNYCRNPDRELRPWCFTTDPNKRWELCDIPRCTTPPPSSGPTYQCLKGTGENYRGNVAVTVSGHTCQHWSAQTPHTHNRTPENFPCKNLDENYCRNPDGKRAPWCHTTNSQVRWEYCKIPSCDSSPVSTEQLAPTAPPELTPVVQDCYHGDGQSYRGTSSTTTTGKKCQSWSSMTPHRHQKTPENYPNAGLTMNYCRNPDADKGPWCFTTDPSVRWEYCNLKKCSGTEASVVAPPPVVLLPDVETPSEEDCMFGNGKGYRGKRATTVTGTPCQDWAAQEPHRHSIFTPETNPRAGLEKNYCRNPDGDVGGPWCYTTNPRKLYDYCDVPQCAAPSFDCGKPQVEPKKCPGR

[2] = test system: NDV (Newcastle disease virus) strain R2B
[3] = Qualitative test for relative solubility
[4] = test system: Human neuroblastoma cell line Sh-Sy5y; assay: Cellular toxicity assay (MTT assay), neurotoxicity; conditions: Sh-Sy5y cells, 1 ug/mL, 24 hours
[5] = Fibrin clot swelling at 3% loading, with and without plasmin; conditions: for fibrin clot swelling in degrading medium prior to degradation: medium containing plasmin; for fibrin clot swelling in non-degrading medium: no plasmin

Structure (SMILES) | protease inhibition activity (inhibiting plasmin mediated degradation of fibrin clots) ([1]; pH 7.4, 37° C.) | resistance against fibrin clot degradation by plasmin ([1]; pH 7.4, 37° C.) | plasmin-mediated degradation of fibrin clots at 3% loading [1] | protease inhibition activity compared with TA (conclusion) [1] | concentration at which efficacious against fibrin clot degradation ([1]; plasmin, pH 7.4, 37° C.) [mM] | antiviral activity versus virus control [2] | toxicity to cells treated with compound only [2] | water solubility [3] | solvent needed to dissolve in buffer relative to water ([3]; pH 7.4 100 mM phosphate buffer versus water) | solubility in methanol or propanol ([3]; room temperature) | cytotoxicity or neurotoxicity compared with TA [4] | fibrin clot swelling in degrading medium prior to degradation [5] | fibrin clot swelling in non-degrading medium [5] | degradation of the clot ([1]; 0.1 mM, plasmin, pH 7.4, 37° C.) [%] | degradation of the clot ([1]; 1 mM, plasmin, pH 7.4, 37° C.)
NCC1CCC(C(=O)[O][Ca][O]C(=O)C2CCC(CN)CC2)CC1 (stereo not shown) [Ca-TA, Calcium bis-tranexamate] | dose-dependent protease inhibition activity; also recorded: exhibit protease inhibition activity | effective resistance | inhibited plasmin-mediated degradation of the fibrin clots for a longer period | comparable to that of TA | ≤ 0.1 | no significant difference between the virus control and treated | no toxicity was observed | water soluble | approximately four times as much solvent | not soluble to a significant degree | comparable cytotoxicity or neurotoxicity results as that of TA | more than 50% | more than 50% |  | 
NCC1CCC(C(=O)O)CC1 (stereo not shown) [TA, Tranexamic acid, reference compound] |  | effective resistance | inhibited plasmin-mediated degradation of the fibrin clots for a longer period |  |  | no significant difference between the virus control and treated |  |  |  |  |  | degraded without swelling | did not swell |  | 
COCC(=O)NCC1CCC(C(=O)O)CC1 (stereo not shown) [MTA, N-(methoxy-acetamido) tranexamic acid] | exhibit protease inhibition activity |  |  | eliminates or significantly reduces protease inhibition activity; also recorded: reduced protease inhibition activity than TA |  | no significant difference between the virus control and treated |  | water soluble |  |  | reduced neurotoxicity than TA |  |  | 100 | about 85.1+/−0.6%
